From ChEMBL document CHEMBL2021792, “Tetrahydro-naphthols as orally available TRPV1 inhibitors” (Bioorg Med Chem Lett, 2012)

Key:
[1] = target: Transient receptor potential cation channel subfamily V member 1 (Homo sapiens, UniProt Q8NER1); assay: Antagonist activity at human TRPV1 expressed in CHOluc9aeq cells assessed as inhibition of capsaicin-stimulated response by aequorin and CRE-lucifearase reporter gene assay; format: functional, cell-based
[2] = AUC in rat at 1 mg/kg, po; format: ADME, organism-based; design: dose 1 mg/kg, route oral; conditions: plasma
Plasma = assay: Unbound fraction in rat plasma; format: ADME, cell-free
[3] = Oral bioavailability in rat at 1 mg/kg; format: ADME, organism-based; conditions: in vivo

Chain of Transient receptor potential cation channel subfamily V member 1 (Q8NER1 whole entry): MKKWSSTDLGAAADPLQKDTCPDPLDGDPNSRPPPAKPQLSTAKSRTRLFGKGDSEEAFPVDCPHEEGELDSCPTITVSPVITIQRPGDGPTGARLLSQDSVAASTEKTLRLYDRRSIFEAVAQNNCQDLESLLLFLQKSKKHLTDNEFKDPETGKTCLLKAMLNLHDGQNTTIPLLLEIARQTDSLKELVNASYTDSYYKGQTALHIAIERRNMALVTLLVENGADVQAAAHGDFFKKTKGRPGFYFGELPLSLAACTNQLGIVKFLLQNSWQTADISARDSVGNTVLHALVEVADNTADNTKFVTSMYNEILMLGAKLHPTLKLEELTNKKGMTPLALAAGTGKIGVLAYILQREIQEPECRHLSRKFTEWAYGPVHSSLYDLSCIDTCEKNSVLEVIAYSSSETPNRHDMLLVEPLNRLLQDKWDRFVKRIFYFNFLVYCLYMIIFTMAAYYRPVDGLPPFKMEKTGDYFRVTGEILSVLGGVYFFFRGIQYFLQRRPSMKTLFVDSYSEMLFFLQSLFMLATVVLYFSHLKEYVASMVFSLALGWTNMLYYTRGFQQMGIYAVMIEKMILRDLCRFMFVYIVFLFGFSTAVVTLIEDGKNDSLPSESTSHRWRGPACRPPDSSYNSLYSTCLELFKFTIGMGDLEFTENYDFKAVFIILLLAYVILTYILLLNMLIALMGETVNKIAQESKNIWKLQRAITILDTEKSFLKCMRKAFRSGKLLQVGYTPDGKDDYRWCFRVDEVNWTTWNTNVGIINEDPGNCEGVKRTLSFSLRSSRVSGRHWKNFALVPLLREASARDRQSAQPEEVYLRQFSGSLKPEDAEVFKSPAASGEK

Row | SMILES | IC50 [1] [nM] | AUC [2] [ng·h/mL] | other results
1 | O=C(Nc1ccc(Cl)c(C(F)(F)F)c1)Nc1cccc2cc(O)ccc12 | 18 |  | 
2 | O=C(Nc1ccc(Cl)c(C(F)(F)F)c1)Nc1cccc2c(O)cccc12 | 45 |  | 
3 | O=C(Nc1ccc(Cl)c(C(F)(F)F)c1)Nc1cccc2ccc(O)c(F)c12 | 9.1 |  | 
4 | O=C(Nc1ccc(Cl)c(C(F)(F)F)c1)Nc1cccc2ccc(C(=O)O)cc12 | 84 |  | 
5 | O=C(Nc1ccc(Cl)c(C(F)(F)F)c1)Nc1ccc2ccc(O)cc2c1 | 130 |  | 
6 | Nc1ccc2cccc(NC(=O)Nc3ccc(Cl)c(C(F)(F)F)c3)c2c1 | 34 | 217 | 
7 | CNc1ccc2cccc(NC(=O)Nc3ccc(Cl)c(C(F)(F)F)c3)c2c1 | 30 | 125 | 
8 | O=C(Nc1ccc(Cl)c(C(F)(F)F)c1)Nc1cccc2ccc(NCc3ccccc3)cc12 | 140 | 12 | 
9 | Nc1cc2c(NC(=O)Nc3ccc(Cl)c(C(F)(F)F)c3)cccc2cc1Cl | > 1000 |  | 
10 | CC(=O)Nc1ccc2cccc(NC(=O)Nc3ccc(Cl)c(C(F)(F)F)c3)c2c1 | 530 | 1590 | 
11 | CS(=O)(=O)Nc1ccc2cccc(NC(=O)Nc3ccc(Cl)c(C(F)(F)F)c3)c2c1 | > 1000 | 709 | 
12 | NS(=O)(=O)c1ccc2cccc(NC(=O)Nc3ccc(Cl)c(C(F)(F)F)c3)c2c1 | 710 |  | 
13 | NS(=O)(=O)Cc1ccccc1NC(=O)Nc1ccc(Cl)c(C(F)(F)F)c1 | 460 |  | 
14 | NS(=O)(=O)c1ccccc1NC(=O)Nc1ccc(Cl)c(C(F)(F)F)c1 | > 1000 |  | 
15 | O=C(Nc1ccc(Cl)c(C(F)(F)F)c1)Nc1cccc2cc[nH]c12 | 67 | 176 | 
16 | O=C(Nc1ccc(Cl)c(C(F)(F)F)c1)Nc1cccc2nn[nH]c12 | 180 |  | 
17 | O=C(Nc1ccc(Cl)c(C(F)(F)F)c1)Nc1cccc2[nH]ccc12 | 33 | 530 | 
18 | O=C(Nc1ccc(Cl)c(C(F)(F)F)c1)Nc1cccc2nc(C(F)(F)F)[nH]c12 | 32 |  | 
19 | Cc1nc2cccc(NC(=O)Nc3ccc(Cl)c(C(F)(F)F)c3)c2[nH]1 | 58 |  | 
20 | O=C(Nc1ccc(Cl)c(C(F)(F)F)c1)Nc1ccccc1CCCO | 220 |  | 
21 | O=C(Nc1ccc(Cl)c(C(F)(F)F)c1)Nc1ccccc1CCO | 56 | 374 | 
22 | O=C(Nc1ccc(Cl)c(C(F)(F)F)c1)Nc1ccccc1CO | 330 |  | 
23 | NCCc1ccccc1NC(=O)Nc1ccc(Cl)c(C(F)(F)F)c1 | > 1000 |  | 
24 | O=C(Nc1cccc(CCO)c1)Nc1ccc(Cl)c(C(F)(F)F)c1 | 230 | 75 | 
25 | Cc1cccc(NC(=O)Nc2ccc(Cl)c(C(F)(F)F)c2)c1CCO | 16 |  | 
26 | O=C(Nc1ccc(Cl)c(C(F)(F)F)c1)Nc1cccc2c1CC(O)CC2 (racemic) |  | 650 | Fu (Plasma): 0.28%; bioavailability [3]: 74%
27 | O=C(Nc1ccc(Cl)c(C(F)(F)F)c1)Nc1cccc2c1CC(CO)CC2 (racemic) | 87 |  | 
28 | CC1CCc2cccc(NC(=O)Nc3ccc(Cl)c(C(F)(F)F)c3)c2C1 (racemic) | 93 |  | 
